Among the data in patent US20090130763A1, “Method of Controlling Degradation of Protein by Tetracycline Antibiotic” (priority 2005, published 2009) are change in fluorescence values, retold here.

The test deals with proteasome. Briefly: Incubation of TetR-EGFP-expressed cells with proteasome inhibitor, fluorescence by flow cytometer. As to conditions: variant TetR-EGFP-expressed cells, 100 μg/ml, 12 hours (FIG. 1C). In general terms: Flow cytometry measures light scatter and fluorescence of single cells or particles in a stream.

Residues, ends and D or L forms follow the SMILES beside them. *: point of attachment. Cbz = O=C(OCc1ccccc1)*

Description: The cells were treated with trypsin and then recovered. Fluorescence-positive cell rates and the intensity of fluorescence per cell were analyzed by a flow cytometer (BD, FACSCalibur).
These cells were incubated for 12 hours in the presence of 100 μg/ml of proteasome inhibitor MG132.

As to `CC(C)C[C@@H](C=O)NC(=O)[C@H](CC(C)C)NC(=O)[C@H](CC(C)C)NC(=O)OCc1ccccc1` [MG132] (Cbz-Leu-Leu-Leu-aldehyde), the change in fluorescence entry is “marked increase”.
